The conditions of series [1]: mouse.
For series [2], the target named is T1, human EP2 receptors (Homo sapiens, UniProt P43116). As to conditions: for EP2 potency (in words): tested at 1 μM.
In series [3] the target is T1, human EP2 receptors. Particulars: earlier study; cited from earlier work.

T1 sequence (P43116 whole entry): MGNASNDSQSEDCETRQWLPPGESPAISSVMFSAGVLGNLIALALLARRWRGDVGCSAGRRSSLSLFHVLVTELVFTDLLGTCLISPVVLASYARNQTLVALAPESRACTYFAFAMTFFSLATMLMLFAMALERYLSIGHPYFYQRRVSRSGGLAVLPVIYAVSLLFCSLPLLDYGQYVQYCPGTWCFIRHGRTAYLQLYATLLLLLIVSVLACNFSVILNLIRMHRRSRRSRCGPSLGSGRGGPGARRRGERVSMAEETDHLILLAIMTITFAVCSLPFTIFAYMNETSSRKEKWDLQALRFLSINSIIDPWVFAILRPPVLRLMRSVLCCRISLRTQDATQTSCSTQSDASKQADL

In the case of `Cc1cc2ccccc2n1CCNC(=O)/C=C/c1ccc(OCCO)c(OCCO)c1` [6a, (E)-3-(3,4-Bis(2-hydroxyethoxy)phenyl)-N-(2-(2-methyl-1H-indol-1-yl)ethyl)acrylamide], the “in vivo plasma half-life” value in series [1] was “more than an hour”. Moreover, the brain penetration property result in series [1] (in vivo) is recorded as “poor”.
As to `COc1ccc(/C=C/C(=O)NCCn2c(C)cc3ccccc32)cc1` [6q], the “fold less EP2 potency in comparison to 5a” value on human EP2 receptors [2] stood at 7 fold.
As to `COc1ccc(/C=C/C(=O)NCCn2c(C(F)(F)F)cc3ccccc32)cc1` [5e], the “fold less EP2 potency in comparison to 5d” value on human EP2 receptors [2] is on record as 16 fold.
Consider `COc1cc(/C=C/C(=O)NCCc2n[nH]c3ccccc23)cc(OC)c1OC` [6t], for which the “EP2 potency (in words)” value at human EP2 receptors [2] is on record as “completely lost EP2 potency”.
For the molecule `Cc1cc2ccccc2n1CCNC(=O)C1CC1c1ccc(F)cc1` (centres unmarked) [6i], the “fold less EP2 potency in comparison to 5a” value at human EP2 receptors [2] is recorded as 100 fold.
Consider `COc1cc(/C=C/C(=O)NCCN2CCCCC2C)cc(OC)c1OC` (centres unmarked) [6j], for which the “EP2 activity (in words)” value on human EP2 receptors [3] is “complete loss of activity”.
In the case of `COC(=O)[C@H](Cc1c(C)[nH]c2ccccc12)NC(=O)/C=C/c1cc(OC)c(OC)c(OC)c1` [5y], the “EP2 potency (in words)” value on human EP2 receptors [2] is “inactive”.
`COc1cc(C(N)CC(=O)NCCn2c(C)cc3ccccc32)cc(OC)c1OC` (centres unmarked) [5w]: the “fold less EP2 potency in comparison to 5a” value at human EP2 receptors [2] is on record as 180 fold.
Still for that read-out and setting: the same measure for `COc1cc(/C=C/C(=O)NCCc2c(C)oc3ccccc23)cc(OC)c1OC` [5k]: 138 fold.
On to `COc1ccc(CCNC(=O)CCn2c(C)cc3ccccc32)cc1OC` [5u], for which the “EP2 potency (in words)” value on human EP2 receptors [2] was “killed EP2 potency”.
Still for that read-out and setting: for `COc1cc(/C=C/C(=O)NCc2c(C)[nH]c3ccccc23)cc(OC)c1OC` [5s] the value was “complete loss of potency”.
Take `Cc1cc(/C=C/C(=O)NCCn2c(C(F)(F)F)cc3ccccc32)cc(C)c1F` [5f]: at human EP2 receptors [2], the “fold less EP2 potency in comparison to 5d” value is recorded as 16 fold.
Turning to `COc1cc(/C=C/C(=O)OCCn2c(C)cc3ccccc32)cc(OC)c1OC` [6h], the “fold less EP2 potency in comparison to 5a” value at human EP2 receptors [2] is “about 140 fold”.

Values taken from paper PMC4032197 (Journal of Medicinal Chemistry, 2014).
